Measured values from patent US20100119595A1, “Monounsaturated fatty acids and perhydrocyclopentanophenanthrene nucleus combination molecules, and their precursors, and the use of all of these as weight-loss agents” (priority 2001, published 2010).

Columns and labels:
[1] = Rat study of 2 hydroxyestrone oleate (Example 12); format: in vivo, Osborne Mendle rats; settings: rats, oral gavage 21 days, 10, 5, 3.33 or 2.5 micromoles/kg
Procedure: Osborne Mendle rats are selected as the study subjects due to their propensity to gain fat when fed a high fat diet. An initial measurement of body weight is performed on each rat. The rats are placed individually in appropriate cages and allowed an ad libitum diet of standard rat chow and water for a 10-day period. During this 10-day period the rats are gavaged daily with 0.1 cc volume of sunflower oil to allow them to become comfortable with being handled and receiving the gavage tube (it takes about 10 days for this acclimation to occur, and is important so that the animals are not stressed by the gavage). Daily measurements include the following: • 1. Weight • 2. Weight of food consumed • 3. Spillage • 4. Water consumed, both volume and weight The rats remain confined and are denied out-of-cage activity or exercise for the duration of the experiment other than normal daily activity confined to the cage. This initial 10 day period establishes a pattern and average of weight gain, to acclimate the animals to the gavage procedure, and determine the average food and water consumption for each rat. […]
At the end of the study, rats are anesthetized then sacrificed via guillotine. […] Weight of the uterus is determined. […]

[2] = system: MCF-7 human breast cancer cell line; test: MCF-7 human breast cancer cell line test; format: cell-based; settings: MCF-7 human breast cancer cells
Description: The practical use of any compound given to humans for the treatment of obesity require, of course, that the compound not only be effective, but able to pass the FDA requirements and be approved as a drug suitable for humans. […] One test used to determine reactivity with human breast cancer cells is the “MCF-7 human breast cancer cell line test”. The lower the concentration of drug required to produce agonist activity, the more potential there is for problems with cancer causing &/or promotion in humans A comfortable level in the pharmaceutical industry would be a reactivity in the micromolar range. In the case of oleyl estrone, agonist activity begins at […]; with estrone eicosenoate, agonist activity begins at a ten times greater concentration of 1.0 nanomolar. This low concentration of agonist activity mitigates the possibility that these compounds would gain FDA approval for either drug.

[3] = Dog weight-loss study, estrone eicosenoate vs oleoyl-estrone (Example 2); format: in vivo; settings: oral 21 days, 5, 3.33 or 2.5 micromoles/kg vs OE 10 micromoles/kg
Description: Dogs are selected and initial measurements taken. The initial measurements include weight and electrical impedance for each dog as measured by a standard impedance measuring device with electrodes placed between the front and rear paws. The dogs are placed individually in appropriate cages and allowed an ad libitum diet of standard dog chow and water for a 10-day period. Daily measurements include the following: • 1. Weight • 2. Weight of food consumed • 3. Water consumed, both volume and weight Every other day, the dogs' electrical impedance is measured as an indicator of fat tissue content and loss. The dogs remain confined with out of cage activity or exercise for the duration of the experiment. This initial 10-day period establishes a pattern and average of weight gain, impedance change, and food and water consumption for each dog. […] This assures the dogs will readily accept the bread ball as a drug delivery device. […] An appropriate volume of either OE or EE is placed into the center of a thick piece of dense sweet bread (non-porous), carefully rolled into a small ball so none of the to compound leaks out, and sprinkled on the outer surface with sugar or syrup as determined above. […] Electrical impedance of each dog is measured every other day.

Compound | body weight &/or body fat [1] | food consumption [1] | concentration at which agonist activity begins [2] [nM] | weight loss compared with dogs receiving oleoyl-estrone [3]
CCCCCCCC/C=C\CCCCCCCC(=O)Oc1cc2c(cc1O)[C@H]1CC[C@]3(C)C(=O)CC[C@H]3[C@@H]1CC2 [2HOE, 2 hydroxyestrone oleate] | reduction of body weight &/or body fat | reduction in food consumption | – | –
CCCCCCCC/C=C\CCCCCCCCCC(=O)Oc1ccc2c(c1)CC[C@@H]1[C@@H]2CC[C@]2(C)C(=O)CC[C@@H]12 [EE, estrone eicosenoate] | – | – | 1.0 | greater weight loss
